Measurements from US6630469B2, “5-HT7 receptor antagonists” (Bristol-Myers Squibb Company, priority 2000, dated 2003).
Structures can show the parent of a compound that is named as a salt.

How the values were obtained:
[1] = system: rat pup isolation-induced ultrasonic vocalization; experiment: rat pup isolation-induced ultrasonic vocalization test; type: in vivo
Excerpt: The compounds of this invention are useful as antagonists or partial agonists for the treatment of CNS and ocular disorders. […] A compound of this invention has also been assessed in an in vivo model, the rat pup isolation-induced ultrasonic vocalization test. This animal model has proven to be a sensitive and reliable method for detecting anxiolytics and antidepressants across a broad spectrum of pharmacological classes such as benzodiazepines, serotonin reuptake inhibitors, serotonin agonists and NMDA antagonists (Gardner, C.; Drug Devel. Res. 1985, 5,185-193 and Winslow, J.; Insel, T.; Psychopharmacology 1991, 105, 513-520).

human 5-HT7 receptor = target: T1, human 5-HT7 receptor (Homo sapiens, UniProt P34969); experiment: 5-HT7 Receptor Binding Assay; settings: membranes of CHO cells expressing human 5-HT7 receptor; 1 nM 3H-5-carboxamidotryptamine; 25° C., 60 minutes
T1 construct: expressed in transfected cells; host or cells: CHO cells
Procedure, shortened: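 Competition against 1 nM ^3H-5-carboxamidotryptamine over 0.1–1000 nM compound, 60 min, 25° C, 50 mM HEPES, 30 ug membrane protein from CHO cells expressing the human receptor. 10 uM serotonin defined non-specific binding. Bound label counted after filtration; IC50 from non-linear regression.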

T1 sequence (P34969 whole entry): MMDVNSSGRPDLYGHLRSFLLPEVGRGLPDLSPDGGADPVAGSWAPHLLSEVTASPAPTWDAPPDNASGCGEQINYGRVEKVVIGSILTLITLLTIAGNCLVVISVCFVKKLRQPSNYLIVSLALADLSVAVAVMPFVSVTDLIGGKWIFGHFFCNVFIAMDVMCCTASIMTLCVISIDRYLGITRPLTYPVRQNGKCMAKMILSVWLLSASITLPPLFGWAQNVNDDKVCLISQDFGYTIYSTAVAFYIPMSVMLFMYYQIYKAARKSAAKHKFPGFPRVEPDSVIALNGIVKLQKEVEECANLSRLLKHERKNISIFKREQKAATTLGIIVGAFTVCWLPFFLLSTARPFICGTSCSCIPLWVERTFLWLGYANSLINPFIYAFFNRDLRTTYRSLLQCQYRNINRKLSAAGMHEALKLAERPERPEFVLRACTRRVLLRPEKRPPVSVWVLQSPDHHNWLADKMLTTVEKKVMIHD

Structure (SMILES)	IC50 (human 5-HT7 receptor) [nM]	further results
C[C@H](Nc1nc(N)nc(NCCOc2ccccc2)n1)c1ccccc1 (as salt: TFA) [Compound 41, N^2-[2-(Phenoxy)ethyl]-N^4-[(1S)-1-phenylethyl]-1,3,5-triazine-2,4,6-triamine]	–	melting point: 207 to 208 °C
C[C@H](Nc1nc(N)nc(NCCc2ccccn2)n1)c1ccc(F)cc1 (as salt: TFA) [Example 18, N^2-[(1S)-1-(4-Fluorophenyl)ethyl]-N^4-[2-(2-pyridinyl)ethyl]-1,3,5-triazine-2,4,6-triamine]	–	melting point: 161 °C
Cc1ccc([C@H](C)Nc2nc(N)nc(NCCOc3ccccc3)n2)cc1 [N^2-[(1S)-1-(4-Methylphenyl)ethyl]-N^4-(2-phenoxyethyl)-1,3,5-triazine-2,4,6-triamine]	–	amount of compound dosed which reduced the rat pup ultrasonic vocalization by 50% (ID50) [1]: 23.8 mg/kg; locomotor activity at doses suppressing ultrasonic vocalization [1]: did not suppress locomotor activity; supression of rat pup ultrasonic vocalization [1]: dose dependent and significant supression of rat pup ultrasonic vocalization
CC(Nc1ccnc(NCCc2ccccc2)n1)c1ccc(F)cc1 (stereo not drawn) [N^4-[1-(4-Fluorophenyl)ethyl]-N^2-(2-phenylethyl)pyrimidine-2,4-diamine]	≤ 50	–
C[C@H](Nc1cc(NCCc2ccc(N)cc2)ncn1)c1ccccc1 [N^4-[2-(4-Aminophenyl)ethyl]-N^6-[(1S)-1-phenylethyl]pyrimidine-4,6-diamine]	101 to 200	–
C[C@H](Nc1cc(NCCc2ccc(Br)cc2)ncn1)c1ccccc1 [N^4-[2-(4-Bromoophenyl)ethyl]-N^6-[(1S)-1-phenylethyl]pyrimidine-4,6-diamine]	101 to 200	–
CC(Nc1nccc(NCCOc2ccc(F)cc2)n1)c1ccccc1 (stereo not drawn) [N^4-[2-(4-Fluorophenoxy)ethyl]-N^2-(1-phenylethyl)pyrimidine-2,4-diamine]	≤ 50	–
C[C@H](Nc1cc(NCCc2ccc(O)cc2)ncn1)c1ccccc1 [N^4-[2-(4-Hydroxyphenyl)ethyl]-N^6-[(1S)-1-phenylethyl]pyrimidine-4,6-diamine]	≤ 50	–
Fc1ccc(C(F)(F)F)cc1CNc1ccnc(NCCOc2ccccc2)n1 [N^4-[2-Fluoro-5-(trifluoromethyl)phenylmethyl]-N^2-(2-phenoxyethyl)pyrimidine-2,4-diamine]	≤ 50	–
Fc1cc(CNc2ccnc(NCCOc3ccccc3)n2)cc(C(F)(F)F)c1 [N^4-[3-Fluoro-5-(trifluoromethyl)phenylmethyl]-N^2-(2-phenoxyethyl)pyrimidine-2,4-diamine]	101 to 200	–
CC(C)c1ccc(CNc2ccnc(NCCOc3ccccc3)n2)cc1 [N^4-[4-(1-Methylethyl)phenylmethyl]-N^2-(2-phenoxyethyl)pyrimidine-2,4-diamine]	≤ 50	–
Fc1ccc(CNc2ccnc(NCCOc3ccccc3)n2)cc1C(F)(F)F [N^4-[4-Fluoro-3-(trifluoromethyl)phenylmethyl]-N^2-(2-phenoxyethyl)pyrimidine-2,4-diamine]	51 to 100	–
Fc1ccc(CNc2ccnc(NCCc3ccccc3)n2)cc1C(F)(F)F [N^4-[4-Fluoro-3-(trifluoromethyl)phenylmethyl]-N^2-(2-phenylethyl)pyrimidine-2,4-diamine]	101 to 200	–
Cc1ccc([C@@H](C)Nc2ccnc(NCCOc3ccccc3)n2)cc1 [N^4-[(1R)-1-(4-Methylphenyl)ethyl]-N^2-(2-phenoxyethyl)pyrimidine-2,4-diamine]	51 to 100	–
Cc1ccc([C@H](C)Nc2ccnc(NCCOc3ccccc3)n2)cc1 [N^4-[(1S)-1-(4-Methylphenyl)ethyl]-N^2-(2-phenoxyethyl)pyrimidine-2,4-diamine]	≤ 50	–
C[C@H](Nc1ccnc(NCCc2ccccc2)n1)c1ccccc1 [N^4-[(1S)-1-Phenylethyl]-N^2-(2-phenylethyl)pyrimidine-2,4-diamine]	≤ 50	–
